Test results taken from patent publication US20160320368A1, “METHOD AND APPARATUS FOR PREDICTING EFFECTIVE DOSE OR SENSITIVITY OF 5-HYDROXY-1H-IMIDAZOLE-4-CARBOXAMIDE, METHOD FOR DETERMINING AMOUNT OF XANTHOSINE MONOPHOSPHATE, AND TREATMENT AGENT AND METHOD FOR TREATING MYELODYSPLASTIC SYNDROME” (FUJIFILM Corporation, priority 2014, published 2016).

Legend:
[1] = test system: GTP in whole blood; assay: GTP in whole blood (Example 8); assay type: cell-based, human; settings: 37° C., 8 hours, non-treated = 100%
Method: (§1) A ¾ hydrate of Compound A was used as a test compound.
(§2) 450 μL of the blood collected from healthy individuals by heparinized blood collection was added to each tube, and 50 μL of a PBS solution of the test compound (0 μg/mL, 1 μg/mL, 10 μg/mL, or 100 μg/mL in terms of Compound A) for each concentration was added to each tube. The reaction mixture was stirred in an incubator at 37° C. for 8 hours.
(§3) 400 μL of methanol was added to 100 μL of the blood sample obtained in (1). After stirring, 400 μL of chloroform was added, followed by further stirring. 120 μL of ultrapure water was added thereto, followed by stirring and then centrifugation at 4° C. and 10000×g for 15 min. 400 μL of the aqueous phase was recovered and added to an ultrafiltration tube, followed by centrifugation at 12° C. and 9200×g for 2 hours. The filtrate was dried under reduced pressure at 40° C. for 2 hours by using a centrifugal evaporator. After drying, the resulting product was stored in a freezer at −80° C.
The samples obtained in (2) were returned to room temperature and 40 μL of ultrapure water was added to each sample. The mixture was stirred and centrifuged at 4° C. and 21500×g for 5 min. 35 μL of the supernatant was transferred to a vial. After storage at 4° C., XMP, GMP and GTP in the samples were determined in the LC-MS/MS determination instrument and LC conditions described in Example 3 (3), and MS/MS conditions shown in Table 15.
Amounts of XMP, GMP and GTP (%) were calculated assuming that the XMP, GMP and GTP values of a non-Compound A treated group (peak area value) are defined as 100%.

[2] = test system: XMP in whole blood; assay: XMP in whole blood (Example 5); assay type: cell-based, human; settings: 37° C., 8 hours, non-treated = 100%
Method: A ¾ hydrate of Compound A was used s a test compound.
as §2, with “from two” for “from”, “collection (Analyte A and Analyte B)” for “collection”, “μg/mL,” for “μg/mL, 1 μg/mL,”, “μg/mL, 30 μg/mL, 100 μg/mL, 300 μg/mL,” for “μg/mL,”, “1000” for “100”
as §3
The samples obtained in (2-1) and (2-2) were returned to room temperature and 40 μL of ultrapure water was added to each sample. The mixture was stirred and centrifuged at 4° C. and 21500×g for 5 min. 35 μL of the supernatant was transferred to a vial. After storage at 4° C., XMP in samples was determined in the LC-MS/MS determination instrument, LC conditions and MS/MS conditions described in Example 3 (3).
Amounts of XMP (%) were calculated assuming that amounts of XMP in a non-Compound A treated group are defined as 100%.

[3] = PK test of Compound A, single oral administration, plasma concentration; assay type: in vivo, female mice (BALB/cAJcl); settings: from 10 mg/kg up to 80 mg/kg
Method: Non-fasting female mice (BALB/cAJcl) were given a single oral administration of the test compound (10 mg/kg, 40 mg/kg, 80 mg/kg and 160 mg/kg in terms of Compound A).
V1/F, K01, K10, K12 and K21, pharmacokinetic parameters of the two-compartment model, were calculated from the plasma concentration course of Compound A when Compound A was given as a single oral administration. These parameters were used to predict the plasma concentration course of Compound A upon repeated administration in a variety of dosage regimen. […] The parameter of 160 mg/kg was used to carry out the prediction for 120 mg/kg and 240 mg/kg. […] PK parameters (Cmax, Time above IC50 and AUC0-48) were plotted on the X axis, and the inhibition rate of tumor volume was plotted on the Y axis.

[4] = test system: XMP in human myeloid leukemia cells SKM-1; assay: XMP in human myeloid leukemia cells SKM-1 (LC-MS/MS); assay type: cell-based; settings: 24 hours; for Amount of XMP (%): non-treated = 100%; for Decline rate of XMP: 100−amount of XMP (%)
Method: as §1
SKM-1 was used as a human myeloid leukemia cell.
2×10^7 human myeloid leukemia cells were suspended in a culture flask containing 18 mL of an RPMI1640 medium (manufactured by Life Technologies, Inc.). 2 mL of a PBS solution of the test compound (0 μg/mL, 10 μg/mL, 30 μg/mL, 100 μg/mL, 300 μg/mL, or 1000 μg/mL in terms of Compound A) was added to the flask which was then incubated at 37° C. under 5% CO2 for 24 hours. After centrifugation at 20° C. and 300×g for 3 min, the supernatant was removed and suspended in 10 mL of a PBS solution. 10 μL of the suspension was aliquoted and cells were counted using TC10 (manufactured by BioRad). After centrifugation and 300×g for 5 min, the supernatant was removed. After stirring with addition of 1000 μL of methanol, 500 μL of ultrapure water was added thereto, followed by further stirring. 600 μL of the reaction solution was divided into each of two tubes, and 400 μL of chloroform was added to each tube. The reaction solution was stirred and then centrifuged at 4° C. and 10000×g for 15 min. 400 μL of the aqueous phase was recovered and added to an ultrafiltration tube, followed by centrifugation at 12° C. and 9200×g for about 2 hours. The filtrates were pooled in one tube and then dried under reduced pressure at 40° C. for 2 hours by using a centrifugal evaporator. After drying, the resulting product was stored in a freezer at −80° C.
The samples obtained in (1) were returned to room temperature, to each of which 50 μL of 5 mmol/L ammonium formate containing 4 ng/μL of 2′-fluoro-2′-deoxycytidine monophosphate was then added, followed by stirring. 12.5 μL of the supernatant was transferred to a vial, and XMP in the samples was determined in the following determining conditions.
Amounts of XMP (%) were calculated according to the following equation, assuming that the XMP value of a non-Compound A treated group is defined as 100%.
Amount of XMP (%)=((peak area of XMP)/((peak area of 2′-fluoro-2′-deoxycytidine monophosphate)×(number of cells)))/((peak area of XMP of untreated group)/((peak area of 2′-fluoro-2′-deoxycytidine monophosphate of untreated group) (number of cells of untreated group)))×100
The decline rate of XMP (%) was calculated according to the following equation.
Decline rate of XMP (%)=100−amount of XMP (%)

NC(=O)c1nc[nH]c1O [Compound A, 5-Hydroxy-1H-imidazole-4-carboxamide]
Amount of each compound in whole blood (%) GTP ([1]; Compound A 1 μg/mL): 89%
Amount of each compound in whole blood (%) GTP ([1]; Compound A 10 μg/mL): 86%
Amount of each compound in whole blood (%) GTP ([1]; Compound A 100 μg/mL): 79%
Amount of XMP (%) Analyte A Whole blood ([2]; Compound A 1 μg/mL): 57%
Amount of XMP (%) Analyte B Whole blood ([2]; Compound A 1 μg/mL): 44%
Amount of XMP (%) Analyte A Whole blood ([2]; Compound A 3 μg/mL): 53%
Amount of XMP (%) Analyte B Whole blood ([2]; Compound A 3 μg/mL): 27%
Amount of XMP (%) Analyte A Whole blood ([2]; Compound A 10 μg/mL): 47%
Amount of XMP (%) Analyte B Whole blood ([2]; Compound A 10 μg/mL): 15%
Amount of XMP (%) Analyte A Whole blood ([2]; Compound A 30 μg/mL): 26%
Amount of XMP (%) Analyte B Whole blood ([2]; Compound A 30 μg/mL): 11%
Amount of XMP (%) Analyte A Whole blood ([2]; Compound A 100 μg/mL): 15%
Amount of XMP (%) Analyte B Whole blood ([2]; Compound A 100 μg/mL): 9%
linearity of plasma pharmacokinetics [3]: linearity was recognized
Amount of XMP (%) ([4]; SKM-1, Compound A 1 μg/mL): 57%
Decline rate of XMP ([4]; SKM-1, Compound A 1 μg/mL): 43%
Amount of XMP (%) ([4]; SKM-1, Compound A 10 μg/mL): 45%
Decline rate of XMP ([4]; SKM-1, Compound A 10 μg/mL): 55%
Amount of XMP (%) ([4]; SKM-1, Compound A 100 μg/mL): 17%
Decline rate of XMP ([4]; SKM-1, Compound A 100 μg/mL): 83%
